The test has as its target human PAD4 (hPAD4) (Homo sapiens (Human), UniProt Q9UM07). Nature of the test: RFMS Human PAD4 Functional Assay 1. The test is classed as biochemical. Particulars: RFMS assay 1; 5 nM hPAD4, 250 μM BAEE substrate, 50 μM calcium, 37° C. The method in brief:
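Citrullination product read by RapidFire triple-quad MRM against a modified-citrulline internal standard, after TCA stop and 30 min phenyl glyoxal step at 37 °C. Reaction: 250 μM BAEE, 5 nM human PAD4, 90 min at 37 °C, pH 7.5 HEPES buffer with 50 μM calcium and 5 μM TPEN, following 30 min compound–enzyme preincubation (max 50 μM).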

human PAD4 (hPAD4), sequence (Q9UM07 whole entry): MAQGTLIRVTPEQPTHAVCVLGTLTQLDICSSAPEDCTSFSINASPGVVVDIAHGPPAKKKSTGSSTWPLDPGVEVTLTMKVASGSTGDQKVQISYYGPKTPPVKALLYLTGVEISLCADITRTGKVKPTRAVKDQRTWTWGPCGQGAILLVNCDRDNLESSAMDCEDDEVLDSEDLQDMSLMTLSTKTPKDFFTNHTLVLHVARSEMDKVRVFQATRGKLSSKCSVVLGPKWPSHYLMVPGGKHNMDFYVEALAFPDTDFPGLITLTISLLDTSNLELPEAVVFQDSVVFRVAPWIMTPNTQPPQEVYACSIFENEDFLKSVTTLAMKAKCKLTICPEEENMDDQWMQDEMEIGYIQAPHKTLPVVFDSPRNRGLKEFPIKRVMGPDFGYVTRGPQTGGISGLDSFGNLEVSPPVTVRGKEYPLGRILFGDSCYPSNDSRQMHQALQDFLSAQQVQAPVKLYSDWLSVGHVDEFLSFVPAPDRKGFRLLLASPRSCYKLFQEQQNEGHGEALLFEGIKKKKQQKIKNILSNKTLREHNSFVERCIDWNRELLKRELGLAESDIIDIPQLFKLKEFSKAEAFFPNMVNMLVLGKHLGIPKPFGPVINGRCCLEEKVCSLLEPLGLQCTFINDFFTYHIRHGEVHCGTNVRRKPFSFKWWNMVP

By IC50 is commonly meant the point on the concentration scale where inhibition reaches its midpoint. With `Cc1c(-c2cc3ccc(N4CCC(N(C)S(C)(=O)=O)CC4)cc3n2CC2CC2)nn2cc(C(=O)N3CCC[C@@H](N)C3)ccc12` [Example 362, N-[1-(2-{6-[(3R)-3-Aminopiperidine-1-carbonyl]-3-methylpyrazolo[1,5-a]pyridin-2-yl}-1-(cyclopropylmethyl)-1H-indol-6-yl)piperidin-4-yl]-N-methylmethanesulfonamide], the IC50 came to 430 nM.
In the case of `CO[C@H](C)C(=O)N1CCC(c2cccc3cc(-c4nn5cc(C(=O)N6C[C@H](N)C[C@@H](F)C6)cc(F)c5c4C)n(CC4CC4)c23)CC1` [Example 425, (R)-1-(4-(2-(6-((3R,5R)-3-Amino-5-fluoropiperidine-1-carbonyl)-4-fluoro-3-methylpyrazolo[1,5-a]pyridin-2-yl)-1-(cyclopropylmethyl)-1H-indol-7-yl)piperidin-1-yl)-2-methoxypropan-1-one] it was 50 nM; in that of `COc1cc(C(=O)N2CC3CCC2[C@@H]3N)cc2oc(-c3cc4ccc(N5CCC(OC)CC5)cc4n3CC3CC3)c(C)c12` (stereo partly drawn) [Example 159, ((7R)-7-Amino-2-azabicyclo[2.2.1]heptan-2-yl)(2-(1-(cyclopropylmethyl)-6-(4-methoxypiperidin-1-yl)-1H-indol-2-yl)-4-methoxy-3-methylbenzofuran-6-yl)methanone], 1210 nM.
In the case of `COCC(=O)N1CC(c2cccc3cc(-c4nn5cc(C(=O)N6C[C@H](N)C[C@@H](F)C6)cc(OC)c5c4C)n(CC4CC4)c23)C1` [Example 527, 1-(3-(2-(6-((3R,5R)-3-Amino-5-fluoropiperidine-1-carbonyl)-4-methoxy-3-methylpyrazolo[1,5-a]pyridin-2-yl)-1-(cyclopropylmethyl)-1H-indol-7-yl)azetidin-1-yl)-2-methoxyethan-1-one] it was 50 nM; in that of `Cc1cc(-c2ccc3cc(-c4nn5cc(C(=O)N6C[C@H](N)C[C@@H](F)C6)ccc5c4C)n(CC4CC4)c3c2)ccc1C(N)=O` [Example 378, 4-(2-{6-[(3R,5R)-3-Amino-5-fluoropiperidine-1-carbonyl]-3-methylpyrazolo[1,5-a]pyridin-2-yl}-1-(cyclopropylmethyl)-1H-indol-6-yl)-2-methylbenzamide], 450 nM.
In the case of `Cc1c(-c2ccc3cc(-c4nn5cc(C(=O)N6C[C@H](N)C[C@@H](F)C6)ccc5c4C)n(CC4CC4)c3n2)cc(F)c2[nH]c(=O)ccc12` [Example 324, 6-(2-{6-[(3R,5R)-3-Amino-5-fluoropiperidine-1-carbonyl]-3-methylpyrazolo[1,5-a]pyridin-2-yl}-1-(cyclopropylmethyl)-1H-pyrrolo[2,3-b]pyridin-6-yl)-8-fluoro-5-methyl-1,2-dihydroquinolin-2-one] it was 110 nM.
For `Cc1c(-c2cc3cccc(C4CCN(C(=O)C5CC(O)C5)CC4)c3n2CC2CC2)nn2cc(C(=O)N3CC4CCC3[C@@H]4N)ccc12` (mixture of isomers) [Example 467, (4-(2-(6-((7R)-7-amino-2-azabicyclo[2.2.1]heptane-2-carbonyl)-3-methylpyrazolo[1,5-a]pyridin-2-yl)-1-(cyclopropylmethyl)-1H-indol-7-yl)piperidin-1-yl)(3-hydroxycyclobutyl)methanone], the half-maximal inhibitory concentration (IC50) is 20 nM.
In the case of `CC(=O)N1CCC(c2cccc3cc(-c4nn5cc(C(=O)N6CCC[C@@H](N)C6)cc(F)c5c4C)n(CC4CC4)c23)CC1` [Example 413, (R)-1-(4-(2-(6-(3-Aminopiperidine-1-carbonyl)-4-fluoro-3-methylpyrazolo[1,5-a]pyridin-2-yl)-1-(cyclopropylmethyl)-1H-indol-7-yl)piperidin-1-yl)ethan-1-one] it was 30 nM; in that of `Cc1c(-c2cc3ccc(-c4cccc(O)c4Cl)nc3n2CC2CC2)nn2cc(C(=O)N3CCC[C@@H](N)C3)cc(F)c12` [Example 278, 3-(2-{6-[(3R)-3-Aminopiperidine-1-carbonyl]-4-fluoro-3-methylpyrazolo[1,5-a]pyridin-2-yl}-1-(cyclopropylmethyl)-1H-pyrrolo[2,3-b]pyridin-6-yl)-2-chlorophenol], 390 nM; in that of `Cc1c(-c2cc3ccc(C4CC4)nc3n2CC2CC2)nn2cc(C(=O)N3CC4CCC3[C@@H]4N)cc(F)c12` (stereo partly drawn) [Example 41, ((7R)-7-Amino-2-azabicyclo[2.2.1]heptan-2-yl)(2-(6-cyclopropyl-1-(cyclopropylmethyl)-1H-pyrrolo[2,3-b]pyridin-2-yl)-4-fluoro-3-methylpyrazolo[1,5-a]pyridin-6-yl)methanone], 85 nM.
On to `Cc1c(-c2cc3cccc(C4CCN(C(=O)c5cccs5)CC4)c3n2CC2CC2)nn2cc(C(=O)N3C[C@H](N)C[C@@H](F)C3)ccc12` [Example 474, ((3R,5R)-3-Amino-5-fluoropiperidin-1-yl)(2-(1-(cyclopropylmethyl)-7-(1-(thiophene-2-carbonyl)piperidin-4-yl)-1H-indol-2-yl)-3-methylpyrazolo[1,5-a]pyridin-6-yl)methanone], for which the IC50 is 70 nM.
Then `COc1cc(C(=O)N2CCC[C@@H](N)C2)cn2nc(-c3cc4cccc(C5CN(C(=O)[C@@H](C)OC)C5)c4n3CC3CC3)c(C)c12` [Example 525, (R)-1-(3-(2-(6-((R)-3-Aminopiperidine-1-carbonyl)-4-methoxy-3-methylpyrazolo[1,5-a]pyridin-2-yl)-1-(cyclopropylmethyl)-1H-indol-7-yl)azetidin-1-yl)-2-methoxypropan-1-one], with 90 nM; and `Cc1c(-c2cc3ccc(-c4ccc(NS(C)(=O)=O)cc4)cc3n2CC2CC2)nn2cc(C(=O)N3C[C@H](N)C[C@@H](F)C3)ccc12` [Example 369, N-[4-(2-{6-[(3R,5R)-3-Amino-5-fluoropiperidine-1-carbonyl]-3-methylpyrazolo[1,5-a]pyridin-2-yl}-1-(cyclopropylmethyl)-1H-indol-6-yl)phenyl]methanesulfonamide], with 20 nM; and `Cc1c(-c2cc3ccc(N4CCC(S(C)(=O)=O)CC4)nc3n2CC2CC2)nn2cc(C(=O)N3CC4CCC3[C@@H]4N)cc(F)c12` (stereo partly drawn) [Example 268, (7R)-2-{2-[1-(Cyclopropylmethyl)-6-(4-methanesulfonylpiperidin-1-yl)-1H-pyrrolo[2,3-b]pyridin-2-yl]-4-fluoro-3-methylpyrazolo[1,5-a]pyridine-6-carbonyl}-2-azabicyclo[2.2.1]heptan-7-amine], with 40 nM.
Consider `COc1cc(C(=O)N2CCC[C@@H](N)C2)cn2nc(-c3cc4cccc(C5CCN(C(=O)[C@H]6CC[C@@H](O)CC6)CC5)c4n3CC3CC3)c(C)c12` [Example 406, ((R)-3-Aminopiperidin-1-yl)(2-(1-(cyclopropylmethyl)-7-(1-((1s,4s)-4-hydroxycyclohexane-1-carbonyl)piperidin-4-yl)-1H-indol-2-yl)-4-methoxy-3-methylpyrazolo[1,5-a]pyridin-6-yl)methanone], for which the IC50 was 90 nM.
For the compound `COCC(=O)N1CCC(c2cccc3cc(-c4nn5cc(C(=O)N6CCC[C@@H](N)C6)cc(OC)c5c4C)n(CC4CC4)c23)CC1` [Example 401, (R)-1-(4-(2-(6-(3-Aminopiperidine-1-carbonyl)-4-methoxy-3-methylpyrazolo[1,5-a]pyridin-2-yl)-1-(cyclopropylmethyl)-1H-indol-7-yl)piperidin-1-yl)-2-methoxyethan-1-one], the IC50 turned out to be 20 nM.

The values above are taken from patent US12473304B2, “Heterocyclic PAD4 inhibitors” (BRISTOL-MYERS SQUIBB COMPANY, priority 2020, dated 2025).
